The record followed here is PMC5812785 (Nature chemical biology, 2018).

One assay concerns the target TIR1 (Arabidopsis thaliana, UniProt Q38825+Q570C0). It counts as binding.
The target of another assay is ccvTIR1 (TIR1^F79G) (Arabidopsis thaliana, UniProt Q38825+Q570C0, Q570C0:F79G). It counts as binding.

The EC50 is the concentration that produces a half-maximal response.

TIR1, sequence (Q570C0 whole entry, other chains not shown): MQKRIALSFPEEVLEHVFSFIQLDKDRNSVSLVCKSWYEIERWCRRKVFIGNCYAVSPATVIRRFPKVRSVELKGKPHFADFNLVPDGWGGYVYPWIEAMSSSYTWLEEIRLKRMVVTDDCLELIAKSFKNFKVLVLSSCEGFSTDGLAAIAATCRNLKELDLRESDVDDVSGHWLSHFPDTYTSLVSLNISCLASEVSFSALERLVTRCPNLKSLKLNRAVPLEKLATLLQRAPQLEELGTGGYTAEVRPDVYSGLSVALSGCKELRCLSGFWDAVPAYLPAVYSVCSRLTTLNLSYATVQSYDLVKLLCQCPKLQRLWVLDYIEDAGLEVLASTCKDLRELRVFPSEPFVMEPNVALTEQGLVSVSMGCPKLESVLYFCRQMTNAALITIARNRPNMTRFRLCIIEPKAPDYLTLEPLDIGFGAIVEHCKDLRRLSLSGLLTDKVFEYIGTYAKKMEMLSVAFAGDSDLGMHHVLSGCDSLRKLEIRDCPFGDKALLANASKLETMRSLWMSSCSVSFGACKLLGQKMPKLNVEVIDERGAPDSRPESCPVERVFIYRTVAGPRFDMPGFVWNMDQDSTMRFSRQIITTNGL
ccvTIR1 (TIR1^F79G), sequence (Q570C0 whole entry F79G, other chains not shown): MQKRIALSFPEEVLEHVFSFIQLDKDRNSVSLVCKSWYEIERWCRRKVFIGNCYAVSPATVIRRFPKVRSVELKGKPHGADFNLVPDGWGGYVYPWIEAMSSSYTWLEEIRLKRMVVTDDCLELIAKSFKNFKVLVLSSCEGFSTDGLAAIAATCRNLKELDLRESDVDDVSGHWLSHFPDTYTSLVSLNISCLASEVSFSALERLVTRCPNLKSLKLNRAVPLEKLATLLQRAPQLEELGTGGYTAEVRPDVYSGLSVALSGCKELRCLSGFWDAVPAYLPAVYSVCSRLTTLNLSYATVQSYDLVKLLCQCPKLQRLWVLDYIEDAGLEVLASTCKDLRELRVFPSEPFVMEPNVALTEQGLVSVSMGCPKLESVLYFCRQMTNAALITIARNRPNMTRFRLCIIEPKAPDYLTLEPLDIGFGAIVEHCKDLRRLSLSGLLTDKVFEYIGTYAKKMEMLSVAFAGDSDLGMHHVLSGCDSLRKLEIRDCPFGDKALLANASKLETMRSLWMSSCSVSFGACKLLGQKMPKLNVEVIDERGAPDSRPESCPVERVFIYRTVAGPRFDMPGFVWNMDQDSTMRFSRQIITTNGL

`O=C(O)Cc1c[nH]c2ccccc12` [IAA, indole-3-acetic acid] had an EC50 at TIR1 of 11.5 ± 1.23 µM. For the molecule `COc1cccc(-c2ccc3[nH]cc(CC(=O)O)c3c2)c1` [compound 1, 5-(3-methoxyphenyl)indole-3-acetic acid], at ccvTIR1 (TIR1^F79G), a half-maximal effect (EC50) was put at 3.98 ± 0.6 µM.
